According to PubChem BioAssay AID330 (DTP/NCI, 2004):
Values joined by “and” are separate entries in the source; they are usually repeats but may differ in a detail not shown here. Equal entries are not always repeated. Inconclusive results and toxic doses are left out. The calls were made as follows: active = survival T/C of 150% or more; inactive = T/C below 125% in these data.

Tested on: P388 leukemia ip, CD2F1 mice, survival T/C
Test: NCI In Vivo Anticancer Drug Screen. Data for tumor model P388 Leukemia (intraperitoneal) in CD2F1 (CDF1) mice
Settings: endpoint: median survival time, higher = longer survival
In short: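 Mice carrying the transplanted tumor received test compound or vehicle. Survival was recorded in each group, and the value is the treated-group measurement divided by that of the vehicle-treated control group.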

[1] = dose: 50.0 mg/kg/injection, schedule: Q01DX009 (ip), vehicle: saline
[2] = dose: 100.0 mg/kg/injection, schedule: Q01DX009 (ip), vehicle: saline
[3] = dose: 200.0 mg/kg/injection, schedule: Q01DX009 (ip), vehicle: saline
[4] = dose: 50.0 mg/kg/injection, schedule: Q01DX009 (ip), vehicle: saline with Tween-80
[5] = dose: 100.0 mg/kg/injection, schedule: Q01DX009 (ip), vehicle: saline with Tween-80
[6] = dose: 200.0 mg/kg/injection, schedule: Q01DX009 (ip), vehicle: saline with Tween-80

Measured: T/C

N#CCC(=O)NCc1ccncc1
inactive: dose: 25.0 mg/kg/injection, schedule: Q01DX009 (ip), vehicle: saline 110 % of control | [1] 100 % of control | [2] 108 % of control | [3] 110 % of control | dose: 400.0 mg/kg/injection, schedule: Q01DX009 (ip), vehicle: saline 101 % of control

CCOc1cc2c(cc1Cc1ccc(OC)cc1OC)OCO2
inactive: dose: 60.0 mg/kg/injection, schedule: Q01DX005 (ip), vehicle: saline with Tween-80 104 % of control and 107 % of control and 112 % of control | dose: 120.0 mg/kg/injection, schedule: Q01DX005 (ip), vehicle: saline with Tween-80 102 % of control and 107 % of control | dose: 240.0 mg/kg/injection, schedule: Q01DX005 (ip), vehicle: saline with Tween-80 111 % of control and 123 % of control | dose: 480.0 mg/kg/injection, schedule: Q01DX005 (ip), vehicle: saline with Tween-80 118 % of control

CC1OCN2C(C)CCCC12 (stereo unspecified)
inactive: dose: 50.0 mg/kg/injection, schedule: Q01DX005 (ip), vehicle: saline 108 % of control | dose: 100.0 mg/kg/injection, schedule: Q01DX005 (ip), vehicle: saline 106 % of control

CCOC(=O)C(CCC(C)(C)SCc1ccccc1)(NC(C)=O)C(=O)OCC
inactive: [4] 91 % of control | [5] 91 % of control | [6] 86 % of control

C[N+]1(CC2CC2)C2CC(OC(=O)C(CO)c3ccccc3)CC1C1OC12 (stereo unspecified)
inactive: [1] 99 % of control | [2] 96 % of control

C#CC(C(O)c1ccccc1)N1CCOCC1 (stereo unspecified)
inactive: dose: 100.0 mg/kg/injection, schedule: Q04DX003 (ip), vehicle: saline 104 % of control | dose: 200.0 mg/kg/injection, schedule: Q04DX003 (ip), vehicle: saline 102 % of control | dose: 400.0 mg/kg/injection, schedule: Q04DX003 (ip), vehicle: saline 101 % of control

CN(CCCCn1cnc2ccccc21)N=O
inactive: dose: 20.0 mg/kg/injection, schedule: Q01DX001 (ip), vehicle: Klucel (hydroxypropylcellulose) (HPC) 110 % of control | dose: 40.0 mg/kg/injection, schedule: Q01DX001 (ip), vehicle: Klucel (hydroxypropylcellulose) (HPC) 102 % of control | dose: 80.0 mg/kg/injection, schedule: Q01DX001 (ip), vehicle: Klucel (hydroxypropylcellulose) (HPC) 110 % of control

C[n+]1c(-c2cc(C(F)(F)F)cc(C(F)(F)F)c2)c2cc(N)ccc2c2ccc(N)cc21
active: dose: 12.5 mg/kg/injection, schedule: Q01DX009 (ip), vehicle: saline with Tween-80 158 % of control | dose: 20.0 mg/kg/injection, schedule: Q01DX009 (ip), vehicle: water 152 % of control | dose: 25.0 mg/kg/injection, schedule: Q01DX009 (ip), vehicle: saline with Tween-80 166 % of control | [4] 196 % of control
inactive: dose: 2.5 mg/kg/injection, schedule: Q01DX009 (ip), vehicle: water 110 % of control | dose: 5.0 mg/kg/injection, schedule: Q01DX009 (ip), vehicle: water 115 % of control | dose: 10.0 mg/kg/injection, schedule: Q01DX009 (ip), vehicle: water 118 % of control | dose: 80.0 mg/kg/injection, schedule: Q01DX009 (ip), vehicle: water 111 % of control

O=S(=O)(O)CCCS(=O)(=O)O
inactive: [1] 98 % of control | [2] 98 % of control | [3] 101 % of control

CNC(=O)OCc1onc(-c2ccccc2)c1COC(=O)NC
inactive: dose: 12.5 mg/kg/injection, schedule: Q01DX005 (ip), vehicle: distilled water + Tween-80 98 % of control | dose: 25.0 mg/kg/injection, schedule: Q01DX005 (ip), vehicle: distilled water + Tween-80 100 % of control | dose: 50.0 mg/kg/injection, schedule: Q01DX005 (ip), vehicle: distilled water + Tween-80 98 % of control | dose: 100.0 mg/kg/injection, schedule: Q01DX005 (ip), vehicle: distilled water + Tween-80 100 % of control | dose: 200.0 mg/kg/injection, schedule: Q01DX005 (ip), vehicle: distilled water + Tween-80 98 % of control

COc1nc(N(C)C)c2cnn(C3CCCCO3)c2n1 (stereo unspecified)
inactive: dose: 12.5 mg/kg/injection, schedule: Q04DX002 (ip), vehicle: saline with Tween-80 102 % of control | dose: 25.0 mg/kg/injection, schedule: Q04DX002 (ip), vehicle: saline with Tween-80 97 % of control

CN(C)c1nc(NO)nc(N(C)C)n1
inactive: [4] 103 % of control | [5] 107 % of control | [6] 112 % of control

Cc1cc(C)cc(CSCc2c(CSCc3cc(C)cc(C)c3)c(CSCc3cc(C)cc(C)c3)c(CSCc3cc(C)cc(C)c3)c(CSCc3cc(C)cc(C)c3)c2CSCc2cc(C)cc(C)c2)c1
inactive: [4] 102 % of control | [5] 100 % of control | [6] 105 % of control
